# From PubChem BioAssay (NCI)
# Values joined by “and” are separate entries in the source; they are usually repeats but may differ in a detail not shown here. Identical values can stand only once.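 How tested: cells in 96-well plates exposed to compound for 48 hours at five concentrations. At the GI50, growth is halved. TGI denotes the concentration required for complete inhibition of growth.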
# How the values were obtained:
# Assay in all cases: NCI anticancer screen, dose series, 48 h
# [1] = tested on: RPMI-8226 leukemia
# [2] = tested on: EKVX NSCLC
# [3] = tested on: M14 melanoma
# [4] = tested on: OVCAR-8 ovarian
# [5] = tested on: SNB-75 CNS
# [6] = tested on: SF-268 CNS
# [7] = tested on: RXF 393 renal
# [8] = tested on: SK-MEL-5 melanoma
# [9] = tested on: NCI-H23 lung
# [10] = tested on: MDA-MB-435
structure (smiles),measurement,setting,value
OCc1ccc(C2CC(c3ccco3)=NN2c2ccccc2)o1 (stereo not given),TGI,[1],> 100 µM
same,TGI,[2],> 100 µM
same,TGI,[3],> 100 µM
same,TGI,[4],> 100 µM
same,TGI,[5],> 100 µM
same,TGI,[6],> 100 µM
same,TGI,[7],> 100 µM
same,TGI,[8],> 100 µM
same,TGI,[9],> 100 µM
O=C1Nc2ccc(F)cc2/C1=C/c1ccc[nH]1,GI50,[1],> 25 µM
same,TGI,[1],> 25 µM
same,GI50,[10],> 25 µM
same,TGI,[10],> 25 µM
same,GI50,[3],> 25 µM
same,TGI,[3],> 25 µM
same,GI50,[4],> 25 µM
same,TGI,[4],> 25 µM
same,GI50,[5],> 25 µM
same,TGI,[5],> 25 µM
same,GI50,[6],> 25 µM
same,TGI,[6],> 25 µM
same,GI50,[7],> 18.3 µM
same,TGI,[7],> 25 µM
same,GI50,[8],> 25 µM
same,TGI,[8],> 25 µM
same,GI50,[9],> 25 µM
same,TGI,[9],> 25 µM
S=C1OC2CCCC[C@H]2O1 (stereo not given in full),TGI,[1],> 100 µM
same,TGI,[2],> 100 µM
same,TGI,[3],> 100 µM
same,TGI,[4],> 100 µM
same,TGI,[5],> 100 µM
same,TGI,[6],> 100 µM
same,TGI,[7],> 100 µM
same,TGI,[8],> 100 µM
same,TGI,[9],> 100 µM
O=C1CCCC[C@H]1[C@H]1CCC[C@@H]([C@H]2CCCCC2=O)C1=O,TGI,[1],> 100 µM
same,TGI,[2],> 100 µM
same,TGI,[3],> 100 µM
same,TGI,[5],> 100 µM
same,TGI,[6],> 100 µM
same,TGI,[7],> 100 µM
same,TGI,[8],> 100 µM
same,TGI,[9],> 100 µM
O=C(NCO)NCOCn1c(=O)n(CO)c(=O)n(CO)c1=O,TGI,[1],68.4 µM
same,TGI,[2],> 100 µM
same,TGI,[3],31.7 µM
same,TGI,[4],> 100 µM
same,TGI,[5],> 100 µM
same,TGI,[6],> 80.8 µM
same,TGI,[7],30.8 µM
same,TGI,[8],> 83 µM
same,TGI,[9],36.3 µM
Cc1ccc(S(=O)(=O)C(C#N)c2nc3ccccc3nc2-n2ccnc2)cc1 (stereo not given),TGI,[1],> 100 µM
same,TGI,[2],> 100 µM
same,TGI,[3],> 100 µM
same,TGI,[4],> 100 µM
same,TGI,[5],> 100 µM
same,TGI,[6],> 100 µM
same,TGI,[8],> 100 µM
same,TGI,[9],> 100 µM
COc1ccc(OC)c2c(C(=O)O)c(Cc3ccccc3)ccc12,TGI,[2],> 100 µM
same,TGI,[3],> 100 µM
same,TGI,[4],> 100 µM
same,TGI,[5],> 100 µM
same,TGI,[6],> 100 µM
same,TGI,[7],> 100 µM
same,TGI,[8],> 100 µM
same,TGI,[9],> 100 µM
O=C1CC2CCCC23CC2(CCN13)OCCO2 (stereo not given),TGI,[1],> 100 µM
same,TGI,[2],> 100 µM
same,TGI,[3],> 100 µM
same,TGI,[4],> 100 µM
same,TGI,[5],> 100 µM
same,TGI,[6],> 100 µM
same,TGI,[7],> 100 µM
same,TGI,[8],> 100 µM
same,TGI,[9],> 100 µM
Clc1ccc2c(c1)-c1c3c(nn1-c1ccccc1)-c1ccccc1SC3O2 (stereo not given),TGI,[1],> 100 µM
same,TGI,[2],> 100 µM
same,TGI,[4],> 100 µM
same,TGI,[5],> 100 µM
same,TGI,[6],> 100 µM
same,TGI,[7],> 100 µM
same,TGI,[8],> 100 µM
same,TGI,[9],> 100 µM
C1CCC([PH+](C2CCCCC2)C2CCCCC2[PH+](C2CCCCC2)C2CCCCC2)CC1.O=C(C1[CH-]CCCC1)C1CCCC[N-]1.[Au] (stereo not given),GI50,[10],0.229 µM
same,TGI,[10],0.704 µM
same,GI50,[3],0.26 µM
same,TGI,[3],1.4 µM
same,GI50,[4],0.245 µM
same,TGI,[4],> 100 µM
same,GI50,[5],0.179 µM
same,TGI,[5],1.05 µM
same,GI50,[6],0.343 µM
same,TGI,[6],1.91 µM
same,GI50,[7],0.317 µM
same,TGI,[7],1.38 µM
same,GI50,[8],0.252 µM
same,TGI,[8],0.661 µM
COc1c(C(C)C)cc2c3c1OC(=O)[C@@]31CCCC(C)(C)C1CC2 (stereo not given in full),TGI,[1],59.8 µM
same,TGI,[2],65.3 µM
same,TGI,[3],> 100 µM
same,TGI,[4],62 µM
same,TGI,[5],55.7 µM
same,TGI,[6],> 100 µM
same,TGI,[7],56.3 µM
same,TGI,[8],28.4 µM
same,TGI,[9],89.9 µM
O=c1cc(NC2CCN(CCCc3ccccc3)CC2)c2cc(Cl)ccc2o1,GI50,[1],16.5 µM
same,TGI,[1],43.4 µM
same,GI50,[10],5.26 µM
same,TGI,[10],18.1 µM
same,GI50,[4],12.1 µM
same,TGI,[4],27.2 µM
same,GI50,[5],8.1 µM
same,TGI,[5],21.1 µM
same,GI50,[6],14.3 µM
same,TGI,[6],28.3 µM
same,GI50,[7],5.88 µM
same,TGI,[7],21.2 µM
same,GI50,[8],12 µM
same,TGI,[8],24.4 µM
same,GI50,[9],14.6 µM
same,TGI,[9],30.3 µM
Cc1ncc(CCCN(C)C)cc1Nc1ncc2c(n1)-c1ccc(C(F)(F)F)cc1NC(=S)C2,GI50,[1],0.0434 µM
same,TGI,[1],21.1 µM
same,GI50,[3],< 0.016 µM
same,TGI,[3],15.7 µM
same,GI50,[4],< 0.0179 µM
same,TGI,[4],23.1 µM
same,GI50,[5],0.0173 µM
same,TGI,[5],0.975 µM
same,GI50,[6],< 0.0195 µM
same,TGI,[6],13.8 µM
same,GI50,[8],< 0.0282 µM
same,TGI,[8],4.85 µM
same,GI50,[9],< 0.0138 µM
same,TGI,[9],17.1 µM
CC(=O)O[C@]12CCCCCC1C1(O)C(O)CCCC[C@H]12 (stereo not given in full),TGI,[1],> 100 µM
same,TGI,[2],> 100 µM
same,TGI,[3],> 100 µM
same,TGI,[4],> 100 µM
same,TGI,[5],> 100 µM
same,TGI,[6],> 100 µM
same,TGI,[7],> 100 µM
same,TGI,[8],> 100 µM
same,TGI,[9],> 100 µM
c1ccc(C2Nc3ccccc3C3OCCCC23)cc1 (stereo not given),TGI,[1],60.2 µM
same,TGI,[2],68.4 µM
same,TGI,[4],44.3 µM
same,TGI,[6],> 100 µM
same,TGI,[7],50.4 µM
same,TGI,[8],31.5 µM
same,TGI,[9],> 100 µM
O=C(O)[C@H](NS(=O)(=O)c1ccc([N+](=O)[O-])cc1)c1ccccc1,TGI,[1],> 100 µM
same,TGI,[2],> 100 µM
same,TGI,[3],> 100 µM
same,TGI,[4],> 100 µM
same,TGI,[5],> 100 µM
same,TGI,[6],> 100 µM
same,TGI,[7],> 100 µM
same,TGI,[8],> 100 µM
same,TGI,[9],> 100 µM
CCCSc1nc(COC(=O)NC)c(COC(=O)NC)n1C,TGI,[1],57.4 µM and > 94.9 µM
same,TGI,[2],> 100 µM
same,TGI,[3],> 100 µM
same,TGI,[4],> 100 µM
same,TGI,[5],> 100 µM
same,GI50,[6],44.4 µM and > 100 µM
same,TGI,[6],> 100 µM
same,TGI,[7],> 100 µM
same,TGI,[8],> 100 µM
same,TGI,[9],> 100 µM
CCOC(=O)c1ccc(C)c(N=NN(C)C)c1,TGI,[1],> 100 µM
same,TGI,[2],> 100 µM
same,TGI,[3],> 100 µM
same,TGI,[4],> 100 µM
same,TGI,[5],> 100 µM
same,TGI,[6],> 100 µM
same,TGI,[7],> 100 µM
same,TGI,[8],> 100 µM
same,TGI,[9],> 100 µM
O=C1CCC(O)=C1N=Nc1ccccc1,TGI,[2],> 100 µM
same,TGI,[3],> 100 µM
same,TGI,[4],> 100 µM
same,TGI,[5],> 100 µM
same,TGI,[6],> 100 µM
same,TGI,[7],> 100 µM
same,TGI,[8],> 100 µM
same,TGI,[9],> 100 µM
CC(C)(C)c1cc(C(O)(C(F)(F)F)C(F)(F)F)c2c(c1)C(C(F)(F)F)(C(F)(F)F)OC(C(C)(C)C)N2 (stereo not given),TGI,[1],6.74 µM
same,TGI,[2],17.1 µM
same,TGI,[3],18.2 µM
same,TGI,[4],13.1 µM
same,TGI,[5],11.7 µM
same,TGI,[7],6.51 µM
same,TGI,[8],3.6 µM
same,TGI,[9],8.6 µM
COc1cc2[nH]c(C(=O)c3cc(OC)c(OC)c(OC)c3)c(N)c2cc1C#CC1CC1,GI50,[1],3.28 µM
same,TGI,[1],42.5 µM
same,GI50,[10],0.332 µM
same,TGI,[10],1.17 µM
same,GI50,[3],1.93 µM
same,TGI,[3],> 100 µM
same,GI50,[4],5.3 µM
same,TGI,[4],> 100 µM
same,GI50,[5],1.02 µM
same,TGI,[5],3.99 µM
same,GI50,[6],9.08 µM
same,TGI,[6],> 100 µM
same,GI50,[8],1.33 µM
same,TGI,[8],22.4 µM
same,GI50,[9],7.12 µM
same,TGI,[9],> 100 µM
